Measurements reported in US10617664B2, “Brain derived PPARα ligands” (Rush University Medical Center, priority 2015, dated 2020).

Experiments:
[1] = molecular target: T1, de novo-synthesized PPARα (Mus musculus, UniProt P23204); experiment: Immunoprecipitation and GC-MS of Ppara-null hippocampal neurons infected with lenti full-length PPARα; format: binding; settings: lenti-FLPara-transduced, not empty lenti-vector
T1 construct: infected with lentiviral particles of full-length PPARα and then immunoprecipitation performed; expressed in transfected cells; host or cells: Ppara-null mouse hippocampal neurons, lentiviral transduction
T1 sequence (P23204 1-468): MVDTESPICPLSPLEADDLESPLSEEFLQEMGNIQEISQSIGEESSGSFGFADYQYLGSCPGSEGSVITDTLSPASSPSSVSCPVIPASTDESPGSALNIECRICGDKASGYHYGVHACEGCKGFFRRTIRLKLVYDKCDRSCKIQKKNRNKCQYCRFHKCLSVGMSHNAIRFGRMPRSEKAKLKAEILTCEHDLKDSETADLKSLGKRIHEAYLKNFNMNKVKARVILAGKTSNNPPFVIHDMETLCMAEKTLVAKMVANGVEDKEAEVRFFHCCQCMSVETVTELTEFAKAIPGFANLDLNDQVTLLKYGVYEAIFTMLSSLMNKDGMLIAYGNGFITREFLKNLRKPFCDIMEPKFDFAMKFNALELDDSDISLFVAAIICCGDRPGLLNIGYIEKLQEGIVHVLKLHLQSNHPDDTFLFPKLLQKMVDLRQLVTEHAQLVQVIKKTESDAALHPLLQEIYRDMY
Protocol: Identification of novel nuclear ligands of PPARα in the hippocampus PPARs are nuclear receptors that require the binding of ligands for activation of gene expression. […] In order to identify these ligands, a gas chromatography mass spectrometric (GCMS) technology was adopted. Briefly, nuclear extracts were prepared form mouse hippocampus, incubated with a GST-tagged PPARα ligand binding domain (LBD), purified with affinity chromatography, reconstituted with chloroform or acetonitrile, and GCMS analyses preformed. (FIG. 1A, FIGS. 7A-C.). […] Therefore, next cultured Ppara-null hippocampal neurons were infected with lentiviral particles of full-length PPARα and then immunoprecipitation performed followed by GCMS analyses (FIG. 1J, FIG. 7G-H). […] The efficiency of gene transduction was measured by immunoblot analyses of cell extract with PPARα antibody (FIG. 7I. In addition, these analyses successfully identified a group of biological ligands of PPARα, which are endogenously produced in the hippocampus. Some of these detected compounds are sulfur-containing unknown compounds such as thiazoles (MW 220-240), thiosemicarbazones (MW 190-200) and thiazolidine esters (MW 250-270) (Table 2). However, these compounds were excluded from this study because of their unknown biosynthetic pathway, relatively poor match-factor (<65), and commercial unavailability. […]

[2] = GC-MS of GFP-affinity purified extract of transduced Ppara-null hippocampal neurons; format: binding, mouse; settings: Vector Only; for Rel. Abundance (RA): normalized with internal standard
Protocol: Lentivirus-mediated de novo expression studies were performed, where wild type full-length (GFP-FLPpara) was overexpressed and three different LBD-mutated PPARα (GFP-Y314D, GFP-Y464D and GFP-Y314D/Y464D Ppara) recombinant proteins (FIG. 9D) were expressed in neurons followed by binding analyses with three endogenous ligands. Briefly, site directed mutagenesis was performed in the mouse PPARα with Y314 and Y464 residues replaced separately or together with aspartate (D). After that, the entire mouse GFP-Ppara gene (GFP-FLPpara) and three different mutated genes were cloned in the pLenti6/V5-TOPO lentiviral expression vector (FIG. 3D), packaged in lentivirus particle with HEK293FT cells, purified full length and mutated PPARα proteins in a GFP-affinity column, and finally thermal shift assays were performed in order to analyze their conformational stability. […] After 48 h of transduction, the cells were homogenized, passed through GFP-affinity column, eluted, fractionated with chloroform-methanol, and finally analyzed by GC-MS for the detection of ligands. […] On the other hand, mutation of the Y464 completely knocked down the ligand binding affinity as we observed profound loss of ligand binding in both lenti-GFP-Y464D-Ppara (FIG. 3K, FIG. 9K) and lenti-GFP-Y314D/Y464D-Ppara (FIG. 3L, FIG. 9L)-transduced Ppara-null neurons. Throughout these analyses, we used 2,4-bis (α, α-dimethyl benzyl) phenol as an internal standard (Supplementary FIG. 5A-F). We normalized peak area of different ligands with that of internal standard and then quantified the binding affinity of these ligands with different construct of PPARα by peak integration statistics (Table 1).
Either E18 cultured mouse hippocampal neurons or hippocampal tissue of 6-8 week old male C57/BL6 mice were homogenized in ice-cold nondetergent hypotonic buffer [10 mM HEPES (pH 7.9), 1.5 mM MgCl2, 10 mM KCl, […], protease and phosphatase inhibitor cocktail]. After 10 min of additional incubation in the hypotonic buffer, the homogenate was centrifuged at 8,000 g at 4° C. for 10 min. Next, the pellet was homogenized in ice-cold extraction buffer [10 mM HEPES (pH 7.9), 1.5 mM MgCl2, 0.21 M NaCl, 0.2 mM EDTA, 25% (v/v) glycerol, […], protease and phosphatase inhibitor cocktail], placed on a rotating shaker at 4° C. for 1 h, and then centrifuged at 18,000 g for 10 min. The supernatant (nuclear fraction) was incubated with 1.5 μg of GST PPARα LBD (Protein One) at 4° C. for 6 h in a rotating shaker. The reaction mixture was passed through glutathione column (Pierce® GST Spin Purification Kit), washed four times [50 mM Tris HCl (pH 7.4), 100 mM NaCl, protease and phosphatase inhibitor cocktail] and then eluted with free glutathione. The eluate was transferred to methanol:chloroform:water (4:3:1) mixture and then centrifuged at 14,000 rpm for 90 sec. The organic phase was collected, evaporated in the SpeedVac, reconstituted with 30 μL chloroform or acetonitrile, and then analyzed by GC-MS. In another case, E18 cultured hippocampal neurons were transduced with lentiviral particles conjugated with PPARα-LBD or different GFP-tagged mutated constructs followed by pulling down with anti-PPARα antibody or passing the extract through GFP-column of Vector Fusion-Aid GFP Kit (Cat # MB-0732). After that, the eluate was collected from the column with 5M NaCl solution, concentrated with PD-10 desalting column and analyzed for GC-MS.
A JEOL GCMate II (JEOL USA, Peabody Mass.) mass spectrometer was used in these experiments. The gas chromatograph was an Agilent 6890Plus (Wilmington Del.) equipped with a G1513A auto-injector with 100 vial sample tray connected to a G1512A controller. The gas chromatography column was a fused silica capillary column with a nonpolar 5% phenyl 95% dimethylpolysiloxane phase (Agilent HP-5 ms), 30 meters long, 0.25 mm internal diameter, 0.25 μm film thickness. […]

Row | binding to de novo-synthesized PPARα (GC-MS) [1] | SMILES | % RA [2] [%] | Adjusted peak area [2] | Rel. Abundance (RA) [2]
1 | found to be bound | CCCCCCCCCCCCCCCC(N)=O [HEX, hexadecanamide] | 1.92 | 17632 | 0.01924
2 | found to be bound | CCCCCCCCC=CCCCCCCCC(N)=O [OCT, 9-octadecenamide] | 8.69 | 79623 | 0.08689
